Literature values, collected in US6683169B2, “Nucleic acid encoding the human peptide histidine transporter 1 and methods of use thereof” (Rutgers, The State University of New Jersey, priority 2000, dated 2004).
Peptide text beside a SMILES is read from it.

Target: T1, rPHT1 (Rattus norvegicus, UniProt O09014)
T1 construct: host or cells: Xenopus oocytes
Conditions: rPHT1 in Xenopus oocytes; for inhibition of histidine transport: inhibition studies

T1 sequence (O09014 whole entry): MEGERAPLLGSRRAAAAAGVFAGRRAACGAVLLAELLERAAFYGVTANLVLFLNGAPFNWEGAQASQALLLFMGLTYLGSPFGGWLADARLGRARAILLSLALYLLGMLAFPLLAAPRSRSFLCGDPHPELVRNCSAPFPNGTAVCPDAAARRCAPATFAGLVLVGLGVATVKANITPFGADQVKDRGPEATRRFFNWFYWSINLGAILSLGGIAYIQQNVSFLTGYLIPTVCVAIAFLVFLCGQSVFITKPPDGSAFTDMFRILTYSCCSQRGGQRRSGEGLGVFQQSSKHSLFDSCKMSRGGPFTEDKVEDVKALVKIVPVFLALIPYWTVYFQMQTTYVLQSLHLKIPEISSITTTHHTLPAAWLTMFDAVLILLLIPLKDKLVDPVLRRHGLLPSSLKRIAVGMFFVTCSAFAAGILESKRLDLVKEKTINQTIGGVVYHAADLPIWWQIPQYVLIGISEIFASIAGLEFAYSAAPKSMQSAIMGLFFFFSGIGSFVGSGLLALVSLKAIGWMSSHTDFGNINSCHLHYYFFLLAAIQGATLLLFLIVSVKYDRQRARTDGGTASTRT

Structure (SMILES)	inhibition of histidine transport	carnosine uptake versus water-injected control oocytes ([3H]carnosine)
NCC(=O)NCC(=O)NCC(=O)O [Gly-Gly-Gly] (H-Gly-Gly-Gly-OH)	inhibited	–
NCC(=O)NCC(=O)O [Gly-Gly] (H-Gly-Gly-OH)	inhibited	–
CC(C)C[C@H](NC(=O)CN)C(=O)O [Gly-Leu]	inhibited	–
NCCC(=O)N[C@@H](Cc1cnc[nH]1)C(=O)O [carnosine]	inhibited	significantly higher
